Data published in patent publication US11339130B1 (Blade Therapeutics, Inc., priority 2016, dated 2022).

Experiments:
Type in all cases: biochemical
Human Calpain 1/NS1 = biological target: T1, Human Calpain 1/NS1 (Homo sapiens, UniProt P07384); experiment: Calpain inhibition continuous fluorescence (FRET) assay, Human Calpain 1/NS1; conditions: Column A; read-out: Human Calpain 1/NS1 IC50
T1 sequence (P07384 1-714): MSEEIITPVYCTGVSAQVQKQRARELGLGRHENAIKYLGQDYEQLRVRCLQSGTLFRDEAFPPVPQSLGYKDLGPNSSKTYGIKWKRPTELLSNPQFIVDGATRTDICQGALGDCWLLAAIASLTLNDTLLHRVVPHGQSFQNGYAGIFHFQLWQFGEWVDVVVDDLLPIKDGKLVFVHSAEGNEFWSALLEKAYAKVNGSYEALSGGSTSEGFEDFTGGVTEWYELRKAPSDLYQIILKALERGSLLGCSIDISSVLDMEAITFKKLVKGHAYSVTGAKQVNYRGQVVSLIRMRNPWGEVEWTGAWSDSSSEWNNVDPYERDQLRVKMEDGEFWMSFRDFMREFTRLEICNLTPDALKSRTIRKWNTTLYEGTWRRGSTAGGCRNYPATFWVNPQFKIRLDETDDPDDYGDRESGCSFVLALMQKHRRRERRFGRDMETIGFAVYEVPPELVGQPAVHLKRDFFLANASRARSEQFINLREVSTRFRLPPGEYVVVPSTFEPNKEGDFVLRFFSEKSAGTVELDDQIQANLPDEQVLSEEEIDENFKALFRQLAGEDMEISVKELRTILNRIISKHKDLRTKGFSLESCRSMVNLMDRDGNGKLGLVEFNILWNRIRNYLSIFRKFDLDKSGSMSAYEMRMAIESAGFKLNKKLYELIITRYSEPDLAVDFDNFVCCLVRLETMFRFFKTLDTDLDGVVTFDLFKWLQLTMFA
T1 sequence (P04632 1-268 partner): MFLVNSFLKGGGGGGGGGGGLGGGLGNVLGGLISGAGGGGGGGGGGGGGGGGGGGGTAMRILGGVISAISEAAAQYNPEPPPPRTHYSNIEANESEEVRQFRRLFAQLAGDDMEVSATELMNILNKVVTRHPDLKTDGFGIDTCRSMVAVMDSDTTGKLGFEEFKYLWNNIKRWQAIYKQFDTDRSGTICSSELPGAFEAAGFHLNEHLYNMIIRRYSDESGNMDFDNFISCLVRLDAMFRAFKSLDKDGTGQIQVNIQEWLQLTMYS
Outline: (§1)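 Fluorescence increase from the cleaved 5-FAM/QXL 520 substrate, read at 490/520 nm, gave activity. Calcium was supplied with the substrate to activate the enzyme in situ after a 25C enzyme-inhibitor preincubation, and IC50s were fit from initial slopes.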

Human Calpain 2/NS1 = biological target: T2, Human Calpain 2/NS1 (Homo sapiens, UniProt P17655); experiment: Calpain inhibition continuous fluorescence (FRET) assay, Human Calpain 2/NS1; conditions: Column B; read-out: Human Calpain 2/NS1 IC50
T2 sequence (P17655 1-700): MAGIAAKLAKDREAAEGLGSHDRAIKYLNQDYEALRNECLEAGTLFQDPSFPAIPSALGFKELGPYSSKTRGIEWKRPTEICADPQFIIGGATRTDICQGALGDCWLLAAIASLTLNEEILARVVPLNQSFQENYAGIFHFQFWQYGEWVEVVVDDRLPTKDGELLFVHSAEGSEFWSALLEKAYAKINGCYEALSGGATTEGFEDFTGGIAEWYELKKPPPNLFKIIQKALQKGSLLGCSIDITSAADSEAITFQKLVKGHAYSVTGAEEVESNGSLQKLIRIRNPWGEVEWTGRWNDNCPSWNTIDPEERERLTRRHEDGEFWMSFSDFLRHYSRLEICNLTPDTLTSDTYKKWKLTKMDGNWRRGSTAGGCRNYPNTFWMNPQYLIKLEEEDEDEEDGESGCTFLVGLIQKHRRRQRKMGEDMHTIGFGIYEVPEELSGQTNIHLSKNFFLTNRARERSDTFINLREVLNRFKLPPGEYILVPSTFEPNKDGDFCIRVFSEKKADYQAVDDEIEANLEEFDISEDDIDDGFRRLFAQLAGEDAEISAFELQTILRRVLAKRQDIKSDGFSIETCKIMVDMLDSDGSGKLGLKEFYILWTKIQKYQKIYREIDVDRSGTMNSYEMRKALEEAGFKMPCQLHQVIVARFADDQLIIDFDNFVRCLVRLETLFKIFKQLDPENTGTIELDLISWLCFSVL
T2 sequence (P04632 1-268 partner): T1 sequence (P04632 1-268 partner)
Outline: as §1

Human Calpain 9/NS1 = biological target: T3, Human Calpain 9/NS1 (Homo sapiens, UniProt O14815); experiment: Calpain inhibition continuous fluorescence (FRET) assay, Human Calpain 9/NS1; conditions: Column C; read-out: Human Calpain 9/NS1 IC50
T3 sequence (O14815 1-690): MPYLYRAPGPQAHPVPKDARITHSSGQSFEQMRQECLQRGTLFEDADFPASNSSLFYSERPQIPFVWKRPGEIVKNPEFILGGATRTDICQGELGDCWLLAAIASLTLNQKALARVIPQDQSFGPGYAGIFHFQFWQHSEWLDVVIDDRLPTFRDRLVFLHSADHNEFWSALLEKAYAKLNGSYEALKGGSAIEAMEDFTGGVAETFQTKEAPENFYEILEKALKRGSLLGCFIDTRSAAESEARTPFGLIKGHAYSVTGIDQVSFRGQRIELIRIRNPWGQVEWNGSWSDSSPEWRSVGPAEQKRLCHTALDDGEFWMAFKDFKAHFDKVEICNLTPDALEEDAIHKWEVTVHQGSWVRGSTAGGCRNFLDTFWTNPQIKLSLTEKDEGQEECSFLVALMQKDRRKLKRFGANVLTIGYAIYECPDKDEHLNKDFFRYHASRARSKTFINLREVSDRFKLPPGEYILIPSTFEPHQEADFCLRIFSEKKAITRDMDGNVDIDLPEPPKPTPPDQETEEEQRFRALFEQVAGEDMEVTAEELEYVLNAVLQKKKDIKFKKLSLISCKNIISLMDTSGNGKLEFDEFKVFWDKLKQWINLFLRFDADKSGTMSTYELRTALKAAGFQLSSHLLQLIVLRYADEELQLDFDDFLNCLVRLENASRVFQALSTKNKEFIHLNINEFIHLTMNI
T3 sequence (P04632 1-268 partner): T1 sequence (P04632 1-268 partner)
Outline: as §1

IC50 (Human Calpain 1/NS1) [µM]	IC50 (Human Calpain 2/NS1) [µM]	IC50 (Human Calpain 9/NS1) [µM]	SMILES
> 10	> 10	> 10	Cc1cc(C(=O)N[C@@H](Cc2ccccc2)C(=O)C(=O)NCc2ccc(Cl)c(Cl)c2)n(-c2ccccc2)n1 [Compound 149, (S)—N-(4-((3,4-dichlorobenzyl)amino)-3,4-dioxo-1-phenylbutan-2-yl)-3-methyl-1-phenyl-1H-pyrazole-5-carboxamide]
> 10	> 10	> 10	Cc1noc(-c2ccccc2)c1C(=O)N[C@@H](Cc1ccccc1)C(=O)C(=O)NCc1cccc(OC(F)(F)F)c1 [Compound 150, (S)—N-(3,4-dioxo-1-phenyl-4-((3-(trifluoromethoxy)benzyl)amino)butan-2-yl)-3-methyl-5-phenylisoxazole-4-carboxamide]
< 3	< 3	< 3	Cc1noc(-c2ccccc2)c1C(=O)N[C@@H](Cc1ccccc1)C(=O)C(=O)NCc1ccc(S(C)(=O)=O)cc1 [Compound 151, (S)-3-methyl-N-(4-((4-(methylsulfonyl)benzyl)amino)-3,4-dioxo-1-phenylbutan-2-yl)-5-phenylisoxazole-4-carboxamide]
< 3	< 3	< 3	Cc1noc(-c2ccccc2)c1C(=O)N[C@@H](Cc1ccccc1)C(=O)C(=O)NCc1cccc(S(C)(=O)=O)c1 [Compound 152, (s)-3-methyl-N-(4-((3-(methylsulfonyl)benzyl)amino)-3,4-dioxo-1-phenylbutan-2-yl)-5-phenylisoxazole-4-carboxamide]
< 3	< 3	< 3	Cn1ncc(C(=O)N[C@@H](Cc2ccccc2)C(=O)C(N)=O)c1-c1ccncc1 [Compound 165, (S)—N-(4-amino-3,4-dioxo-1-phenylbutan-2-yl)-1-methyl-5-(pyridin-4-yl)-1H-pyrazole-4-carboxamide]
< 3	< 3	< 3	Cc1ccc(-c2c(C(=O)N[C@@H](Cc3ccccc3)C(=O)C(N)=O)cnn2C)cc1 [Compound 167, (S)—N-(4-amino-3,4-dioxo-1-phenylbutan-2-yl)-1-methyl-5-(p-tolyl)-1H-pyrazole-4-carboxamide]
< 3	< 3	< 3	Cn1cc(C(=O)N[C@@H](Cc2ccccc2)C(=O)C(N)=O)c(-c2ccccn2)n1 [Compound 169, (S)—N-(4-amino-3,4-dioxo-1-phenylbutan-2-yl)-1-methyl-3-(pyridin-2-yl)-1H-pyrazole-4-carboxamide]
< 3	< 3	< 3	Cn1ncc(C(=O)N[C@@H](Cc2ccccc2)C(=O)C(N)=O)c1-c1cncnc1 [Compound 176, (S)—N-(4-amino-3,4-dioxo-1-phenylbutan-2-yl)-1-methyl-5-(pyrimidin-5-yl)-1H-pyrazole-4-carboxamide]
< 3	< 3	< 3	Cn1ncc(C(=O)N[C@@H](Cc2ccccc2)C(=O)C(N)=O)c1-c1cccnc1 [Compound 189, (S)—N-(4-amino-3,4-dioxo-1-phenylbutan-2-yl)-1-methyl-5-(pyridin-3-yl)-1H-pyrazole-4-carboxamide]
3 to 10	> 10	3 to 10	Cc1ccccc1-c1c(C(=O)N[C@@H](Cc2ccccc2)C(=O)C(N)=O)cnn1C [Compound 190, (S)—N-(4-amino-3,4-dioxo-1-phenylbutan-2-yl)-1-methyl-5-(o-tolyl)-1H-pyrazole-4-carboxamide]
< 3	< 3	< 3	Cn1ncc(C(=O)N[C@@H](Cc2ccccc2)C(=O)C(N)=O)c1-c1ncccn1 [Compound 191, (S)—N-(4-amino-3,4-dioxo-1-phenylbutan-2-yl)-1-methyl-5-(pyrimidin-2-yl)-1H-pyrazole-4-carboxamide]
< 3	< 3	< 3	Cn1cc(C(=O)N[C@@H](Cc2ccccc2)C(=O)C(N)=O)c(-c2ccncn2)n1 [Compound 192, (S)—N-(4-amino-3,4-dioxo-1-phenylbutan-2-yl)-1-methyl-3-(pyrimidin-4-yl)-1H-pyrazole-4-carboxamide]
< 3	< 3	< 3	Cn1ncc(C(=O)N[C@@H](Cc2ccccc2)C(=O)C(N)=O)c1-c1cccc(C(F)(F)F)n1 [Compound 194, (S)—N-(4-amino-3,4-dioxo-1-phenylbutan-2-yl)-1-methyl-5-(6-(trifluoromethyl)pyridin-2-yl)-1H-pyrazole-4-carboxamide]
< 3	3 to 10	< 3	C=CC[C@H](NC(=O)c1cn(C)nc1-c1ccccc1)C(=O)C(N)=O [Compound 195, N-(1-amino-1,2-dioxohex-5-en-3-yl)-1-methyl-3-phenyl-1H-pyrazole-4-carboxamide]
< 3	< 3	3 to 10	Cn1cc(C(=O)N[C@@H](Cc2ccccc2)C(=O)C(N)=O)c(Br)n1 [Compound 196, (S)—N-(4-amino-3,4-dioxo-1-phenylbutan-2-yl)-3-bromo-1-methyl-1H-pyrazole-4-carboxamide]
< 3	< 3	3 to 10	O=C(NC1CC1)C(=O)[C@H](Cc1ccccc1)NC(=O)c1cncn1-c1ccc(-c2ccccc2)nn1 [Compound 201, (S)—N-(4-(cyclopropylamino)-3,4-dioxo-1-phenylbutan-2-yl)-1-(6-phenylpyridazin-3-yl)-1H-imidazole-5-carboxamide]
> 10	> 10	> 10	O=C(NC1CC1)C(=O)[C@H](Cc1ccccc1)NC(=O)c1nn[nH]c1-c1ccccc1 [Compound 204, (S)—N-(4-(cyclopropylamino)-3,4-dioxo-1-phenylbutan-2-yl)-5-phenyl-1H-1,2,3-triazole-4-carboxamide]
< 3	< 3	< 3	Cc1noc(-c2ccccc2)c1C(=O)N[C@@H](CCc1ccccc1)C(=O)C(N)=O [Compound 205, (S)—N-(1-amino-1,2-dioxo-5-phenylpentan-3-yl)-3-methyl-5-phenylisoxazole-4-carboxamide]
